Results: patent US20240109900A1, “AZABICYCLIC SHP2 INHIBITORS” (IRBM S.P.A., priority 2021, published 2024)
pIC50: −log10 of the molar value. Read-outs that look alike come from different tables or passages of the source.

Legend:
[1] = system: ERK phosphorylation in KYSE-520 cells; assay: Phospho-ERK cellular assay; assay type: cell-based; details: read-out: PERK IC50
In short: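 TR-FRET read-out of ERK1/2 Thr202/Tyr204 phosphorylation was taken after overnight antibody incubation at room temperature. Before that, KYSE-520 cells were treated 2 h at 37 °C with compound dilutions and lysed 30 min. Percent inhibition relative to vehicle and cell-free wells was fitted four-parametrically to give IC50.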

[2] = molecular target: SHP-2 enzyme (Met1-Leu525) (Homo sapiens (Human), UniProt Q06124); assay: SHP2 inhibition enzymatic assay; assay type: biochemical
In short: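 SHP-2 (Met1-Leu525), 0.5 nM, activated with 500 nM IRS1 bis-phosphopeptide, preincubated 30 min with compounds in HEPES pH 7.2 buffer with 5 mM DTT. 75 μM DiFMUP added for 30 min at room temperature, stopped with bpV; fluorescence read. IC50 from four-parameter logistic fit of % inhibition.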

[3] = Homo sapiens, KYSE-520, 2 h, KYSE-520 cells, 2 h at 37° C., phospho-ERK1/2 (Thr202/Tyr204) TR-FRET
[4] = 0.5 nM SHP-2 activated by 500 nM IRS1 peptide, 75 μM DiFMUP substrate, read-out: SHP2wt-IC50

Sequence of SHP-2 enzyme (Met1-Leu525) (Q06124 1-525): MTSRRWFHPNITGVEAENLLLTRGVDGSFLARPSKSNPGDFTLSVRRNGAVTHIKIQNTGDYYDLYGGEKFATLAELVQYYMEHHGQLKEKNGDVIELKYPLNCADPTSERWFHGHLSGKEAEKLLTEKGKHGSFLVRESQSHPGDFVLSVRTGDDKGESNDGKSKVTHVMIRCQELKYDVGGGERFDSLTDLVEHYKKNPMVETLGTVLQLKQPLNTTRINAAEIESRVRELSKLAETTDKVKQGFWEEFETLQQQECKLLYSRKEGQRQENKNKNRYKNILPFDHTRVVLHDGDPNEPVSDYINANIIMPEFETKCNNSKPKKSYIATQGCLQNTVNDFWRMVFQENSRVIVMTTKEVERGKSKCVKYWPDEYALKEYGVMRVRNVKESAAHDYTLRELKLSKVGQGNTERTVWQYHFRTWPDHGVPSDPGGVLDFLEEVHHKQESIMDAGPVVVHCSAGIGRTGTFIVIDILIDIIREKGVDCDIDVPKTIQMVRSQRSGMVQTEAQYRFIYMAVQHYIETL

Row | pIC50 [1, 3] | pIC50 [2, 4] | SMILES | other results
1 | > 6.00 | > 6.30 | NC[C@]1(c2cc(F)ccc2F)[C@@H]2CCN(c3cnc(Sc4ccnc(-n5cccn5)c4Cl)cn3)C[C@@H]21 [Example 402, ((1S,6R,7R)-3-(5-((3-chloro-2-(1H-pyrazol-1-yl)pyridin-4-yl)thio)pyrazin-2-yl)-7-(2,5-difluorophenyl)-3-azabicyclo[4.1.0]heptan-7-yl)methanamine] | –
2 | > 6.00 | > 6.30 | Cc1cc([C@@]2(CN)[C@@H]3CCN(c4cnc5c(-c6ccnc7c(F)cccc67)n[nH]c5n4)C[C@@H]32)no1 [Example 114, ((1S,6R,7S)-3-(3-(8-fluoroquinolin-4-yl)-1H-pyrazolo[3,4-b]pyrazin-6-yl)-7-(5-methylisoxazol-3-yl)-3-azabicyclo[4.1.0]heptan-7-yl)methanamine] | –
3 | – | – | NC[C@]1(c2ccccc2F)[C@@H]2CCN(c3cnc4c(-c5ccc(OS(=O)(=O)F)c6ncccc56)n[nH]c4n3)C[C@@H]21 [Example 449, 5-(6-((1S,6R,7R)-7-(aminomethyl)-7-(2-fluorophenyl)-3-azabicyclo[4.1.0]heptan-3-yl)-1H-pyrazolo[3,4-b]pyrazin-3-yl)quinolin-8-yl sulfurofluoridate] | pIC50 ([1]; Homo sapiens, KYSE-520, 2 h): > 6.00; pIC50 ([2]; SHP2wt-IC50, 0.5 nM SHP-2 activated by 500 nM IRS1 peptide, 75 μM DiFMUP substrate): > 6.30
4 | > 6.00 | > 6.30 | Cc1nccc(Sc2ccc3nc(N4CC[C@@H]5[C@H](C4)[C@@]5(CN)c4ccccc4F)cnc3n2)c1F [Example 419, ((1S,6R,7R)-3-(6-((3-fluoro-2-methylpyridin-4-yl)thio)pyrido[2,3-b]pyrazin-2-yl)-7-(2-fluorophenyl)-3-azabicyclo[4.1.0]heptan-7-yl)methanamine] | –
5 | < 5.30 | > 6.30 | NC[C@]1(c2ccccc2F)[C@@H]2CCN(c3nccn4c(-c5cccc(Cl)c5Cl)ncc34)C[C@@H]21 [Example 416, ((1S,6R,7R)-3-(3-(2,3-dichlorophenyl)imidazo[1,5-a]pyrazin-8-yl)-7-(2-fluorophenyl)-3-azabicyclo[4.1.0]heptan-7-yl)methanamine] | –
6 | > 6.00 | > 6.30 | Cc1csc([C@@]2(CN)[C@@H]3CN(c4cnc5nc(Sc6ccnc(-n7cccn7)c6Cl)ccc5n4)C[C@@H]32)n1 [Example 515, ((1R,5S,6r)-3-(6-((3-chloro-2-(1H-pyrazol-1-yl)pyridin-4-yl)thio)pyrido[2,3-b]pyrazin-2-yl)-6-(4-methylthiazol-2-yl)-3-azabicyclo[3.1.0]hexan-6-yl)methanamine] | –
7 | 5.30 to 6.00 | > 6.30 | Cc1csc(C2(CN)C3CCN(c4cnc(Sc5cccnc5C(F)(F)F)c(N)n4)CC32)n1 (centres unmarked) [Example 73, 6-(7-(aminomethyl)-7-(4-methylthiazol-2-yl)-3-azabicyclo[4.1.0]heptan-3-yl)-3-((2-(trifluoromethyl)pyridin-3-yl)thio)pyrazin-2-amine] | –
8 | > 6.00 | > 6.30 | Cc1nc2cc(-c3n[nH]c4nc(N5CC[C@@H]6[C@H](C5)[C@@]6(CN)c5ccccc5F)cnc34)ccc2[nH]1 [Example 337, ((1S,6R,7R)-7-(2-fluorophenyl)-3-(3-(2-methyl-1H-benzo[d]imidazol-5-yl)-1H-pyrazolo[3,4-b]pyrazin-6-yl)-3-azabicyclo[4.1.0]heptan-7-yl)methanamine] | –
9 | > 6.00 | > 6.30 | NC[C@]1(c2ccccc2F)[C@@H]2CCN(c3cnc4c(-c5ccc(C6CC6)c6ncccc56)n[nH]c4n3)C[C@@H]21 [Example 139, ((1S,6R,7R)-3-(3-(8-cyclopropylquinolin-5-yl)-1H-pyrazolo[3,4-b]pyrazin-6-yl)-7-(2-fluorophenyl)-3-azabicyclo[4.1.0]heptan-7-yl)methanamine] | –
10 | < 5.30 | > 6.30 | Cc1nccc(Sc2cnc(N3CC[C@@H]4[C@H](C3)[C@@]4(CN)c3ccccc3F)cn2)c1F [Example 423, ((1S,6R,7R)-3-(5-((3-fluoro-2-methylpyridin-4-yl)thio)pyrazin-2-yl)-7-(2-fluorophenyl)-3-azabicyclo[4.1.0]heptan-7-yl)methanamine] | –
11 | > 6.00 | > 6.30 | NCC1(c2ccon2)C2CCN(c3cnc4c(-c5cccc(Cl)c5Cl)n[nH]c4n3)CC21 (centres unmarked) [Example 99, (3-(3-(2,3-dichlorophenyl)-1H-pyrazolo[3,4-b]pyrazin-6-yl)-7-(isoxazol-3-yl)-3-azabicyclo[4.1.0]heptan-7-yl)methanamine] | –
12 | > 6.00 | > 6.30 | Cc1cc2ncccc2cc1-c1n[nH]c2nc(N3CC[C@@H]4[C@H](C3)[C@@]4(CN)c3ccccc3F)cnc12 [Example 171, ((1S,6R,7R)-7-(2-fluorophenyl)-3-(3-(7-methylquinolin-6-yl)-1H-pyrazolo[3,4-b]pyrazin-6-yl)-3-azabicyclo[4.1.0]heptan-7-yl)methanamine] | –
13 | 5.30 to 6.00 | > 6.30 | Cc1cc(C2(CN)C3CCN(c4nc5[nH]nc(-c6ccc7nn(C)cc7c6Cl)c5c(=O)n4C)CC32)no1 (centres unmarked) [Example 62, 6-(7-(aminomethyl)-7-(5-methylisoxazol-3-yl)-3-azabicyclo[4.1.0]heptan-3-yl)-3-(4-chloro-2-methyl-2H-indazol-5-yl)-5-methyl-1,5-dihydro-4H-pyrazolo[3,4-d]pyrimidin-4-one] | –
14 | < 5.30 | > 6.30 | NC[C@]1(c2ccccc2F)[C@@H]2CCN(c3cnc4c(-c5cc(C(N)=O)ccc5Cl)n[nH]c4n3)C[C@@H]21 [Example 281, 3-(6-((1S,6R,7R)-7-(aminomethyl)-7-(2-fluorophenyl)-3-azabicyclo[4.1.0]heptan-3-yl)-1H-pyrazolo[3,4-b]pyrazin-3-yl)-4-chlorobenzamide] | –
15 | < 5.30 | > 6.30 | NC[C@]1(c2ccccc2F)[C@@H]2CCN(c3cnc4c(-c5cc(F)c(CO)c(F)c5)n[nH]c4n3)C[C@@H]21 [Example 381, (4-(6-((1S,6R,7R)-7-(aminomethyl)-7-(2-fluorophenyl)-3-azabicyclo[4.1.0]heptan-3-yl)-1H-pyrazolo[3,4-b]pyrazin-3-yl)-2,6-difluorophenyl)methanol] | –
16 | – | – | Cc1csc(C2(CN)C3CCN(c4cnc(Sc5ccnc(N)c5Cl)c(N)n4)CC32)n1 (centres unmarked) [Example 74, 3-((2-amino-3-chloropyridin-4-yl)thio)-6-(7-(aminomethyl)-7-(4-methylthiazol-2-yl)-3-azabicyclo[4.1.0]heptan-3-yl)pyrazin-2-amine] | pIC50 ([1]; Homo sapiens, KYSE-520 cells, 2 h at 37° C., phospho-ERK1/2 (Thr202/Tyr204) TR-FRET): 5.30 to 6.00; pIC50 ([2]; read-out: SHP2wt-IC50): > 6.30
17 | < 5.30 | > 6.30 | COc1cc(-c2n[nH]c3nc(N4CC[C@@H]5[C@H](C4)[C@@]5(CN)c4ccccc4F)cnc23)cc2[nH]c(=O)[nH]c12 [Example 292, 6-(6-((1S,6R,7R)-7-(aminomethyl)-7-(2-fluorophenyl)-3-azabicyclo[4.1.0]heptan-3-yl)-1H-pyrazolo[3,4-b]pyrazin-3-yl)-4-methoxy-1,3-dihydro-2H-benzo[d]imidazol-2-one] | –
18 | – | > 6.30 | COc1ccc(-c2n[nH]c3nc(N4CC[C@@H]5[C@H](C4)[C@@]5(CN)c4ccccc4F)cnc23)cc1F [Example 399] | pIC50 ([1]; KYSE-520 cells, 2 h at 37° C., phospho-ERK1/2 (Thr202/Tyr204) TR-FRET): > 6.00
19 | > 6.00 | < 5.52 | Cn1cc2cc(-c3ccc4nc(N5CC[C@H]6[C@@H](C5)[C@]6(CN)c5ccccc5F)ccc4n3)ccc2n1 [Example 394, ((1R,6S,7S)-7-(2-fluorophenyl)-3-(6-(2-methyl-2H-indazol-5-yl)-1,5-naphthyridin-2-yl)-3-azabicyclo[4.1.0]heptan-7-yl)methanamine] | –
